Data from patent US20250222116A1, “PARP-1 DEGRADATION AGENT AND USE THEREOF” (XIZANG HAISCO PHARMACEUTICAL CO., LTD., priority 2021, published 2025).

System: Human breast cancer MDA-MB-436 cells
Assay: Mouse MDA-MB-436 subcutaneous in vivo transplanted tumor model
Details: for TGI: after 28 days of administration
Experimental: Human breast cancer MDA-MB-436 cells were placed in Leibovitz's L-15 medium (supplemented with 10 μg/mL insulin, 16 μg/mL glutathione, 10% fetal bovine serum and 1% penicillin-streptomycin solution) and cultured at 37° C. Conventional digestion treatment with trypsin was performed twice a week for passage. When the cell saturation was 80%-90%, and the number reached the requirement, the cells were harvested, counted, and inoculated. BALB/c nude mice (from Beijing Vital River Laboratory Animal Technology Co., Ltd.) were subcutaneously inoculated with 0.2 mL (10×10^6) of MDA-MB-436 cells (plus matrigel, with the volume ratio of 1:1) on the right back. When the average tumor volume reached about 180 mm^3, grouping and administration were performed (marked as Day 0). The solvent group was given 5% DMSO, 30% PEG400 and 65% of 20% sulfobutyl-β-cyclodextrin solution, and the administration group was given 1 or 10 mg/kg compound 10. The administration frequency was once a day, the administration cycle was 29 days, and the drug withdrawal observation period was set to 14 days. After grouping, the tumor diameter was measured twice a week with a vernier caliper. The formula for calculating the tumor volume was: V=0.5×a×b^2, where a and b represented the long and short diameters of the tumor, respectively. […] The tumor growth curve and the animal body weight change curve were as shown in FIG. 1 and FIG. 2, respectively.

CCc1cc2ncc(CN3CCN(c4ccc(C(=O)NC5CCN(c6ccc7c(c6)C(=O)N(C6CCC(=O)NC6=O)C7=O)CC5)nc4)CC3)cc2[nH]c1=O (stereo not shown) [Compound 10, N-(1-(2-(2,6-dioxopiperidin-3-yl)-1,3-dioxoisoindolin-5-yl)piperidin-4-yl)-5-(4-((7-ethyl-6-oxo-5,6-dihydro-1,5-naphthyridin-3-yl)methyl)piperazin-1-yl)picolinamide]
tumor growth after drug withdrawal (1 mg/kg group, 14 days withdrawal observation): continued to grow | TGI (1 mg/kg once a day): 47.14% | tumor volume after drug withdrawal (10 mg/kg group, 14 days withdrawal observation): consistently smaller than the tumor volume at the time of grouping | TGI (10 mg/kg once a day): 111% | body weight of the animals (1 or 10 mg/kg once a day): no significant decrease in the body weight | efficacy in inhibiting tumor growth (mouse MDA-MB-436 model): good efficacy in inhibiting tumor growth and inducing tumor regression | tolerability (mouse MDA-MB-436 model): well tolerated
